# Results from ChEMBL document CHEMBL1201862, “PubChem BioAssay data set” (2004).
#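 Assay format: 96-well plates, 48-hour exposure. GI50 is the concentration that inhibits growth by half.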 Activity calls are given as the source filed them. Rule as the data show it: active = GI50 up to about 1.1 µM and inactive = higher.
# Key:
# Assay in all cases: NCI tumour cell line growth inhibition, 48 h
# [1] = system: M14
# [2] = system: HCT-15
# [3] = system: SF-539
# [4] = system: Malme-3M
# [5] = system: OVCAR-4
# [6] = system: RXF 393
# [7] = system: MDA-MB-231
# [8] = system: DU-145
# [9] = system: 786-0
# [10] = system: CCRF-CEM
# [11] = system: OVCAR-3
# [12] = system: UACC-257
# [13] = system: SK-MEL-5
# [14] = system: SNB-75
# [15] = system: LOX IMVI
# [16] = system: HT-29
# [17] = system: EKVX
# [18] = system: SK-MEL-2
# [19] = system: SF-268
# [20] = system: A549
# [21] = system: KM12
# [22] = system: UACC-62
# [23] = system: NCI-H23
# [24] = system: HOP-92
# [25] = system: U-251
# [26] = system: SN12C
# [27] = system: ACHN
# [28] = system: SNB-19
# [29] = system: BT-549
# [30] = system: A498
# [31] = system: SF-295
# [32] = system: T47D
# [33] = system: OVCAR-8
# [34] = system: MDA-N
# [35] = system: HL-60
# [36] = system: MOLT-4
# [37] = system: IGROV-1
# [38] = system: NCI-H460
# [39] = system: SW-620
# [40] = system: SK-OV-3
# [41] = system: UO-31
# [42] = system: MCF7
# [43] = system: HCC 2998
# [44] = system: NCI-H226
# [45] = system: NCI-H522
# [46] = system: SK-MEL-28
# [47] = system: MDA-MB-435
# [48] = system: PC-3
# [49] = system: RPMI-8226
# [50] = system: HOP-62
# [51] = system: SR
# [52] = system: OVCAR-5
# [53] = system: TK-10
# [54] = system: HCT-116
# [55] = system: K562
# [56] = system: NCI/ADR-RES
# [57] = system: COLO 205
# [58] = system: Hs-578T
compound,measurement,setting,value
COC(=O)CCc1cc(OC)c2c(c1)[C@H](C(=O)OC)[C@@H](c1ccc(O)c(OC)c1)O2,GI50,[1],38.3 µM (inactive)
same,GI50,[2],32.7 µM
same,GI50,[3],48.2 µM (inactive)
same,GI50,[4],29.9 µM (inactive)
same,GI50,[5],84.1 µM (inactive)
same,GI50,[6],55.8 µM (inactive)
same,GI50,[7],50.6 µM (inactive)
same,GI50,[8],> 100 µM (inactive)
same,GI50,[9],46.3 µM (inactive)
same,GI50,[10],33.8 µM (inactive)
same,GI50,[11],47.2 µM (inactive)
same,GI50,[12],> 100 µM (inactive)
same,GI50,[13],35 µM (inactive)
same,GI50,[14],43.3 µM (inactive)
same,GI50,[15],57.5 µM (inactive)
same,GI50,[16],36.2 µM (inactive)
same,GI50,[17],58.2 µM (inactive)
same,GI50,[18],33.1 µM (inactive)
same,GI50,[19],52.6 µM (inactive)
same,GI50,[20],39.5 µM (inactive)
same,GI50,[21],30.6 µM (inactive)
same,GI50,[22],39.8 µM (inactive)
same,GI50,[23],38.5 µM (inactive)
same,GI50,[24],> 100 µM (inactive)
same,GI50,[25],38.4 µM (inactive)
same,GI50,[26],56.9 µM (inactive)
same,GI50,[27],86.5 µM (inactive)
same,GI50,[28],51.9 µM (inactive)
same,GI50,[29],44.8 µM (inactive)
same,GI50,[30],31.5 µM (inactive)
same,GI50,[31],47.1 µM (inactive)
same,GI50,[32],55.5 µM (inactive)
same,GI50,[33],78.2 µM (inactive)
same,GI50,[34],17.7 µM (inactive)
same,GI50,[35],15.5 µM (inactive)
same,GI50,[36],24.7 µM (inactive)
same,GI50,[37],61.8 µM (inactive)
same,GI50,[38],37.8 µM (inactive)
same,GI50,[39],47.4 µM (inactive)
same,GI50,[40],42.8 µM (inactive)
same,GI50,[41],52.1 µM (inactive)
same,GI50,[42],49.2 µM (inactive)
same,GI50,[43],21.4 µM (inactive)
same,GI50,[44],> 100 µM (inactive)
same,GI50,[45],38.3 µM (inactive)
same,GI50,[46],41.9 µM (inactive)
same,GI50,[47],15.1 µM (inactive)
same,GI50,[48],91.8 µM (inactive)
same,GI50,[49],17.6 µM (inactive)
same,GI50,[50],77.1 µM (inactive)
same,GI50,[51],1.43 µM (inactive)
same,GI50,[52],> 100 µM (inactive)
same,GI50,[53],> 100 µM (inactive)
same,GI50,[54],35.5 µM (inactive)
same,GI50,[55],13.4 µM (inactive)
same,GI50,[56],40.9 µM (inactive)
same,GI50,[57],41.2 µM (inactive)
same,GI50,[58],38.4 µM (inactive)
